Earlier results in patent US11191745B2, “Silica nanoparticle with an insoluble drug” (CITY OF HOPE, priority 2017, dated 2021).

Tested on: plasma proteins
Conditions: systemically administered

CC(=O)O[C@H]1C(=O)[C@@]2(C)[C@H]([C@H](OC(=O)c3ccccc3)[C@]3(O)C[C@H](OC(=O)[C@H](O)[C@@H](NC(=O)c4ccccc4)c4ccccc4)C(C)=C1C3(C)C)[C@]1(OC(C)=O)CO[C@@H]1C[C@@H]2O [PTX, Paclitaxel]
drug bound to plasma proteins: more than 90%
